The record followed here is PubChem BioAssay AID1918952 (Molecular Pharmacology Branch, DTP, NCI, 2023).

Where “and” joins values, the source holds several entries; their conditions need not be identical. Equal values may be shown once. Where only a bound is given, the exact number is not on record here.

This experiment concerns LG0703-F948-PDC complex spheroid viability. Put plainly: Anticancer human tumor LG0703-F948-PDC patient-derived lung adenocarcinoma cell line growth inhibition. Conditions: for viability, T/C: stronger effect = lower value. The method in brief: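 Drug combinations with the LSD1 inhibitor iadademstat tested on tumor cells co-cultured as spheroids with endothelial cells and mesenchymal stem cells. Concentrations descended in half-log increments from clinical Cmax or 10 microM.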

Setting [1] is: curve of first compound, second compound 0.1 µM.
Setting [2] is: curve of first compound, second compound 0.316 µM.
[3] abbreviates: curve of first compound, second compound 1 µM.
Where [4] appears, read: curve of first compound, second compound 3.16 µM.
Setting [5] is: curve of first compound, second compound 10 µM.
Setting [6] is: second compound 0.1 µM, first compound 0.0316 µM.
Where [7] appears, read: second compound 0.1 µM, first compound 0.1 µM.
Setting [8] is: second compound 0.1 µM, first compound 0.316 µM.
Where [9] appears, read: second compound 0.1 µM, first compound 1 µM.
Where [10] appears, read: second compound 0.316 µM, first compound 0.0316 µM.
[11] abbreviates: second compound 0.316 µM, first compound 0.1 µM.
Where [12] appears, read: second compound 0.316 µM, first compound 0.316 µM.
[13] abbreviates: second compound 0.316 µM, first compound 1 µM.
Setting [14] is: second compound 1 µM, first compound 0.0316 µM.
Where [15] appears, read: second compound 1 µM, first compound 0.1 µM.
The mark [16] stands for this setting: second compound 1 µM, first compound 0.316 µM.
Where [17] appears, read: second compound 1 µM, first compound 1 µM.
[18] abbreviates: second compound 3.16 µM, first compound 0.0316 µM.
The mark [19] stands for this setting: second compound 3.16 µM, first compound 0.1 µM.
Setting [20] is: second compound 3.16 µM, first compound 0.316 µM.
[21] abbreviates: second compound 3.16 µM, first compound 1 µM.
The mark [22] stands for this setting: second compound 10 µM, first compound 0.0316 µM.
Setting [23] is: second compound 10 µM, first compound 0.1 µM.
[24] abbreviates: second compound 10 µM, first compound 0.316 µM.
Where [25] appears, read: second compound 10 µM, first compound 1 µM.
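Note: spheroids exposed to agents for seven days before readout.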
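Throughout, for viability, T/C: 100% = DMSO vehicle control wells as normalization base.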

As to `CC1(C)CCC(CN2CCN(c3ccc(C(=O)NS(=O)(=O)c4ccc(NCC5CCOCC5)c([N+](=O)[O-])c4)c(Oc4cnc5[nH]ccc5c4)c3)CC2)=C(c2ccc(Cl)cc2)C1` + NC1CC1c1ccc(-c2cccc(O)c2)cc1, the half-inhibitory concentration (IC50) by setting is: under setting [1], 2720 nM; under setting [2], 2470 nM; under setting [3], 2640 nM; under setting [4], 2340 nM; under setting [5], 2370 nM. In addition, the viability, T/C under setting [6] was 98.2%; the viability, T/C under setting [7] was 113%; the viability, T/C under setting [8] is 111%; the viability, T/C under setting [9] was 98%; the viability, T/C (second compound 0.1 µM, first compound 3.16 µM) was 42.8%; the viability, T/C (second compound 0.1 µM, first compound 10 µM) is 3.56%. Further, the viability, T/C is 102% under setting [10]; 103% under setting [11]; 100% under setting [12]; 103% under setting [13]; 35.6% (second compound 0.316 µM, first compound 3.16 µM); 3% (second compound 0.316 µM, first compound 10 µM). Also, the viability, T/C by setting is: under setting [14], 106%; under setting [15], 104%; under setting [16], 111%; under setting [17], 85.6%; (second compound 1 µM, first compound 3.16 µM) 43.8%; (second compound 1 µM, first compound 10 µM) 5.17%. For the same molecule, the viability, T/C under setting [18] was 104%; the viability, T/C under setting [19] was 81.7%; the viability, T/C under setting [20] was 102%; the viability, T/C under setting [21] is 111%; the viability, T/C (second compound 3.16 µM, first compound 3.16 µM) is 32.5%; the viability, T/C (second compound 3.16 µM, first compound 10 µM) is 3.01%. The viability, T/C under setting [22] is 103%; the viability, T/C under setting [23] was 104%; the viability, T/C under setting [24] is 93.9%; the viability, T/C under setting [25] is 86.4%; the viability, T/C (second compound 10 µM, first compound 3.16 µM) was 38%; the viability, T/C (second compound 10 µM, first compound 10 µM) is 3.13%.

Turning to `O=C(C=Cc1cccc(S(=O)(=O)Nc2ccccc2)c1)NO` + NC1CC1c1ccc(-c2cccc(O)c2)cc1, the concentration for half-maximal inhibition (IC50) under setting [1] was found to be 61.1 nM; the half-maximal inhibitory concentration (IC50) under setting [2] came out at 70.6 nM; the IC50 under setting [3] came to 70.9 nM; the IC50 under setting [4] worked out at 74.5 nM; the half-maximal inhibitory concentration (IC50) under setting [5] was found to be 95.3 nM. Further, the viability, T/C by setting is: (second compound 0.1 µM, first compound 0.00949 µM) 113%; (second compound 0.1 µM, first compound 0.03 µM) 74.8%; (second compound 0.1 µM, first compound 0.0949 µM) 35.9%; (second compound 0.1 µM, first compound 0.3 µM) 8.61%; (second compound 0.1 µM, first compound 0.949 µM) 1.29%; (second compound 0.1 µM, first compound 3 µM) 0.28%. Further, the viability, T/C runs as follows: (second compound 0.316 µM, first compound 0.00949 µM) 113%; (second compound 0.316 µM, first compound 0.03 µM) 83.5%; (second compound 0.316 µM, first compound 0.0949 µM) 39.5%; (second compound 0.316 µM, first compound 0.3 µM) 8.31%; (second compound 0.316 µM, first compound 0.949 µM) 1.3%; (second compound 0.316 µM, first compound 3 µM) 1.01%. The viability, T/C runs as follows: (second compound 1 µM, first compound 0.00949 µM) 107%; (second compound 1 µM, first compound 0.03 µM) 93.9%; (second compound 1 µM, first compound 0.0949 µM) 34.8%; (second compound 1 µM, first compound 0.3 µM) 7.01%; (second compound 1 µM, first compound 0.949 µM) 1.57%; (second compound 1 µM, first compound 3 µM) 0.1%. Besides, the viability, T/C was 92.3% (second compound 3.16 µM, first compound 0.00949 µM); 80.8% (second compound 3.16 µM, first compound 0.03 µM); 42.2% (second compound 3.16 µM, first compound 0.0949 µM); 6.95% (second compound 3.16 µM, first compound 0.3 µM); 1.69% (second compound 3.16 µM, first compound 0.949 µM); 0.15% (second compound 3.16 µM, first compound 3 µM). Moreover, the viability, T/C was 90% (second compound 10 µM, first compound 0.00949 µM); 86.7% (second compound 10 µM, first compound 0.03 µM); 50% (second compound 10 µM, first compound 0.0949 µM); 7.51% (second compound 10 µM, first compound 0.3 µM); 1.22% (second compound 10 µM, first compound 0.949 µM); 1.1% (second compound 10 µM, first compound 3 µM).

On to `Nc1ncn(C2CC(O)C(CO)O2)c(=O)n1` (centres undefined), for which the viability, T/C by setting is: (compound 0.00316 µM) 85% and 110%; (compound 0.01 µM) 101% and 104%; (compound 0.0316 µM) 88.3% and 95.8%; (compound 0.1 µM) 91.7% and 91.4%; (compound 0.316 µM) 83.5% and 92.4%; (compound 1 µM) 79.6% and 91.2%. Further, the half-inhibitory concentration (IC50) (curve of compound) is greater than 1000 nM.

For the molecule `NS(=O)(=O)OCC1CC(n2ccc3c(NC4CCc5ccccc54)ncnc32)CC1O` (centres undefined), the viability, T/C is 103% and 93.6% (compound 0.00949 µM); 110% and 98.5% (compound 0.03 µM); 102% and 92.3% (compound 0.0949 µM); 74% and 62.3% (compound 0.3 µM); 33.3% and 38.5% (compound 0.949 µM); 15.6% and 20.2% (compound 3 µM). The IC50 (curve of compound) is 590 nM and 545 nM.

`Nc1ncn(C2CC(O)C(CO)O2)c(=O)n1` (centres undefined) + NC1CC1c1ccc(-c2cccc(O)c2)cc1: the IC50 under setting [1] is greater than 1000 nM; the IC50 under setting [2] was greater than 1000 nM; the half-maximal inhibitory concentration (IC50) under setting [3] was greater than 1000 nM; the IC50 under setting [4] was greater than 1000 nM; the IC50 under setting [5] is greater than 1000 nM. Besides, the viability, T/C runs as follows: (second compound 0.1 µM, first compound 0.00316 µM) 106%; (second compound 0.1 µM, first compound 0.01 µM) 111%; under setting [6], 99.3%; under setting [7], 116%; under setting [8], 85.4%; under setting [9], 88.9%. Besides, the viability, T/C is, setting by setting: (second compound 0.316 µM, first compound 0.00316 µM) 116%; (second compound 0.316 µM, first compound 0.01 µM) 117%; under setting [10], 106%; under setting [11], 95.2%; under setting [12], 95.7%; under setting [13], 94.3%. For the same molecule, the viability, T/C is 106% (second compound 1 µM, first compound 0.00316 µM); 103% (second compound 1 µM, first compound 0.01 µM); 104% under setting [14]; 95.7% under setting [15]; 96.3% under setting [16]; 94.6% under setting [17]. Moreover, the viability, T/C runs as follows: (second compound 3.16 µM, first compound 0.00316 µM) 108%; (second compound 3.16 µM, first compound 0.01 µM) 112%; under setting [18], 99.8%; under setting [19], 89.7%; under setting [20], 105%; under setting [21], 105%. For the same molecule, the viability, T/C is 103% (second compound 10 µM, first compound 0.00316 µM); 104% (second compound 10 µM, first compound 0.01 µM); 107% under setting [22]; 106% under setting [23]; 98.4% under setting [24]; 95.3% under setting [25].

A word on the IC50: it is the midpoint of a concentration-inhibition curve. One may read the viability, T/C as the ratio of treated to control.
